Calls of active or inactive are those of the source.
Columns and labels:
[1] = test system: Mus musculus; assay: Reduction in hepatic steatosis in HFD-induced C57BL/6J mouse model of NAFL assessed as reduction in serum ALT level at 20 to 40 mg/kg/day, ip administered from week 7 to week 12; format: functional, organism-based; details: dose 20-40 mg/kg/day, time 6.0 weeks
[2] = test system: HepG2; assay: Inhibition of FFA-induced lipid accumulation in human HepG2 cells incubated for 24 hrs by Oil Red O staining based spectrophotometric analysis; format: functional, cell-based; details: dose 50-100 µM, DDE = dose-dependent effect
[3] = test system: Mus musculus; assay: Upregulation of Acaa1a gene transcriptional level in HFD-induced C57BL/6J mouse model of NAFL at 20 to 40 mg/kg/day, ip administered from week 7 to week 12 by qRT-PCR analysis; format: functional, organism-based; details: dose 20-40 mg/kg/day, time 6.0 weeks
[4] = test system: Mus musculus; assay: Anti-inflammatory activity against MCD-induced C57BL/6J mouse model of nonalcoholic steatohepatitis assessed as attenuation of VCAM1 expression in liver at 20 to 40 mg/kg/day, ip administered from week 3 to week 4 by immunoblotting analysis; format: functional, organism-based; details: dose 20-40 mg/kg/day, time 2.0 weeks

C[C@H]1CO[C@]2(C)Oc3cc(O)c4c(c3C[C@H]12)O[C@@]1(C)OC[C@H](C)[C@H]1C4
active: Activity [1] | inhibition [2] Dde | Activity [3] | Activity [4]

— ChEMBL document CHEMBL5137054, “Xyloketal B Reverses Nutritional Hepatic Steatosis, Steatohepatitis, and Liver Fibrosis through Activation of the PPARα/PGC1α Signaling Pathway” (J Nat Prod, 2022)
